# Entries after “also recorded” stand apart in the source; their conditions may differ.
# What was measured:
# [1] = test system: spleen cells of HLA-A1 transgenic mice immunized with MAGE-A9 full length recombinant protein; test: IFN-γ ELISPOT, MAGE-A9 immunogenic HLA-A1 peptides; assay type: cell-based
# Experimental: FIGS. 14A and 14B depict IFN-γ ELISPOT results of 1st experiment for the MAGE-A9 immunogenic HLA-A1 peptides. IFN-γ response induced by HLA-A1 candidate peptides of MAGE-A9 as detected by IFN-γ ELISPOT assay. Two groups of 3 and 5 mice were immunized respectively with poly(I:C) alone (as control; bar on the left) and with MAGE-A9 full-length recombinant protein admixed with poly(I:C) (bar on the right). Mice were sacrificed 34 days after 1st immunization and spleen cells were tested in IFN-γ ELISPOT after stimulation with dendritic cells loaded with the individual candidate or control peptides (FIG. 14A) or after direct stimulation with the individual candidate or control peptides (FIG. 14B). DCE: Dendritic cell empty; NS: Non stimulated; Ctrl HLA-A1; irrelevant control HLA-A1 peptide. Student T-test *p<0.05; ** p<0.005; *** p<0.0005; **** p<0.00005. […]
# (§1) Groups of ten 6-12 weeks-old HLA-A1, HLA-A2/DR1, HLA-A24, HLA-All (as a surrogate for HLA-A3 allele) and HLA-B7 male/female mice were immunized three times s.c. and i.p., 14 days apart, with 30 μg of MAGE-A9 his-tag full-length recombinant protein admixed with 50 μg (s.c.) or 200 μg (i.p.) of Poly(I:C) in a final volume of 100 μl. […] The immune response was measured using IFN-γ ELISPOT assays (BD). Then spots were counted using an ELISPOT counter (CTL Analyzer) and enumerated as number of spot-forming units (SFU) per well. […]
# [2] = test system: spleen cells of HLA-A2/DR1 transgenic mice immunized with MAGE-A9 full length recombinant protein; test: IFN-γ ELISPOT, MAGE-A9 immunogenic HLA-A2 peptides; assay type: cell-based; conditions: for IFN-γ response (ELISPOT): HLA-A2/DR1 mice, three experiments
# Experimental: FIGS. 11A and 11B depict IFN-γ ELISPOT results of 1st experiment for the MAGE-A9 immunogenic HLA-A2 peptides. Induction of IFN-γ response induced against HLA-A2 peptides of MAGE-A9 as detected by IFN-γ ELISPOT assay. A group of 10 mice was immunized with MAGE-A9 full length recombinant protein admixed with poly(I:C). Mice were sacrificed 34 days after 1st immunization and spleen cells were tested in IFN-γ ELISPOT after stimulation with dendritic cells loaded with the individual candidate or control peptides (FIG. 11A) or after direct stimulation with the individual candidate or control peptides (FIG. 11B). DCE: Dendritic cell empty; NS: Non stimulated; INF, gp100 and EBV: irrelevant HLA-A2 control peptides. Student T-test *p<0.05; ** p<0.005; *** p<0.0005; **** p<0.00005.
# (§2) IFN-γ ELISPOTs was performed to measure antigen-specific T-cell activation upon stimulation with peptides containing the putative epitopes. […]
# (§3) Groups of ten 6-12 weeks-old HLA-A1, HLA-A2/DR1, HLA-A24, HLA-All (as a surrogate for HLA-A3 allele) and HLA-B7 male/female mice were immunized three times s.c. and i.p., 14 days apart, with 30 μg of MAGE-A9 his-tag full-length recombinant protein admixed with 50 μg (s.c.) or 200 μg (i.p.) of Poly(I:C) in a final volume of 100 μl. On day 34, mice were sacrificed. Splenocytes were isolated from spleens and treated with ACK lysis buffer to lyse contaminating erythrocytes. Splenocytes were stimulated with the candidate peptides alone or with dendritic cells loaded with the candidate peptides. The immune response was measured using IFN-γ ELISPOT assays (BD). Then spots were counted using an ELISPOT counter (CTL Analyzer) and enumerated as number of spot-forming units (SFU) per well. Each experiment was repeated two or three times (except for the experiment with HLA-A11 (as a surrogate for HLA-A3 allele) mice which was done only once).
# Student's t-tests were performed to compare two groups (non-stimulated versus stimulated with test peptide). To indicate significance, p-values are represented in the figures by * p<0.05, ** p<0.01, *** p<0.001, and **** p=0.0001. All data are presented as means with standard error of the mean (SEM).
# The experiment was repeated three times for a total number of 30 mice (FIGS. 11, 12, and 13). The immune response for peptides 111, 24, 223 and 270 via Chromium 51 (^51Cr) release assays (CTL assays) is also presented in Example 6. […] These tests offer a very high sensitivity, which explains why the INF-Y response for these peptides appears to be weaker, although the peptides are responsive in other assays (see Examples 6).
# [3] = test system: spleen cells of HLA-A11 transgenic mice immunized with MAGE-A9 full length recombinant protein; test: IFN-γ ELISPOT, MAGE-A9 immunogenic HLA-A3/A11 peptides; assay type: cell-based
# Text: FIGS. 23A and 23B depict IFN-γ ELISPOT results of the experiment for the MAGE-A9 immunogenic HLA-A3/A11 peptides. IFN-γ response induced by HLA-A3 candidate peptides of MAGE-A9 as detected by IFN-γ ELISPOT assay. Two group of 3 and 10 HLA-A11 transgenic mice were immunized respectively with DPX-Empty alone (as control; bar on the left) and with MAGE-A9 full-length recombinant protein admixed with poly(I:C) (bar on the right). Mice were sacrificed 36 days after 1st immunization and spleen cells were tested in IFN-γ ELISPOT after stimulation with dendritic cells loaded with the individual candidate or control peptides (FIG. 23A) or after direct stimulation with the individual candidate or control peptides (FIG. 23B). DCE: Dendritic cell empty; NS: Non stimulated; A3-Ctrl; irrelevant control HLA-A3 peptide.
# as §2, §3
# (§4) Student's t-tests were performed to compare two groups (non-stimulated versus stimulated with test peptide). […]
# [4] = test system: spleen cells of HLA-A24 transgenic mice immunized with MAGE-A9 full length recombinant protein; test: IFN-γ ELISPOT, MAGE-A9 immunogenic HLA-A24 peptides; assay type: cell-based; conditions: three experiments
# Experimental: FIGS. 16A and 16B depict IFN-γ ELISPOT results of 1st experiment for the MAGE-A9 immunogenic HLA-A24 peptides. IFN-γ response induced against HLA-A24 candidate peptides of MAGE-A9 as detected by IFN-γ ELISPOT assay. Two group of 3 and 5 mice were immunized respectively with poly(I:C) alone (as control; bar on the left) and with MAGE-A9 full-length recombinant protein admixed with poly(I:C) (bar on the right). Mice were sacrificed 34 days after 1st immunization and spleen cells were tested in IFN-γ ELISPOT after stimulation with dendritic cells loaded with the individual candidate or control peptides (FIG. 16A) or after direct stimulation with the individual candidate or control peptides (FIG. 16B). DCE: Dendritic cell empty; NS: Non stimulated; A24-Ctrl; irrelevant control HLA-A24 peptide. Student T-test *p<0.05; ** p<0.005; *** p<0.0005; **** p<0.00005.
# as §2, §3, §4
# [5] = molecular target: MHC class 1 allele A*02:01 (Homo sapiens, UniProt P04439, D140Y/D185E/D98H/E176V/E277Q/G131W/G231S/I119V/I121R/I166T/I218V/L300P/L318F/N151K/N90K/P208A/P217A/Q86G/Q94H/R138H/R169H/T345S); test: REVEAL binding of HLA-A2 binding peptides; conditions: for binding to MHC class 1 allele A*02:01 (in words): Higher REVEAL score
# [6] = test system: peptide-loaded RMA-S HHD cells; test: Chromium 51 release assay (CTL assay); assay type: cell-based, mice; conditions: for CTL response (51Cr-release): effector:target 75:1, 50:1, 25:1, mice immunized with recombinant MAGE-A9 and poly(I:C)
# HLA-A2 = molecular target: T1, HLA-A2 (Homo sapiens, UniProt P04439, D140Y/D185E/D98H/E176V/E277Q/G131W/G231S/I119V/I121R/I166T/I218V/L300P/N151K/N90K/P208A/P217A/Q86G/Q94H/R138H/R169H); test: Flex-T in vitro HLA binding assay (HLA class I ELISA); conditions: Flex-T monomer peptide exchange, β2-microglobulin ELISA
# T1 construct: purchased Biolegend, USA
# Experimental: Internal in vitro assay that assesses the binding of each of the peptides to HLA-A2 as a part of the potency assay development was performed using the Flex-T in vitro binding assay.
# Flex-T technology (Biolegend, USA) offers the opportunity to quantitatively measure the binding affinity of peptides to their respective MHC Class I receptors (In this case HLA-A2). Flex-T was made of MHC monomers loaded with a peptide that can be degraded using a UV light source. This allowed for a peptide exchange when the UV irradiation was done in the presence of the peptide of interest which is not UV-labile.
# The binding of the peptide of interest to the Flex-T monomer was quantified using an HLA class I ELISA method based on the detection of β2-microglobulin subunit of HLA class I complexes, after capturing the complex through the conjugated biotin. To this end, biotinylated HLA class I monomer-peptide complex was first captured in streptavidin coated microtiter wells. Subsequently, lRP-conjugated anti-human 02-microglobulin was added to detect intact HLA class I complexes. Only intact HLA class I complexes were recognized.
# The relative potency was then calculated compared to a reference lot using parallel line analysis as per USP <1034>.
# [7] = test system: spleen cells of HLA-B7 transgenic mice immunized with MAGE-A9 full length recombinant protein; test: IFN-γ ELISPOT, MAGE-A9 immunogenic HLA-B7 peptides; assay type: cell-based; conditions: individual responses per mouse
# Experimental: FIGS. 19A and 19B depict IFN-γ ELISPOT results of 1st experiment for the MAGE-A9 immunogenic HLA-B7 peptides. IFN-γ response induced by HLA-B7 candidate peptides of MAGE-A9 as detected by IFN-γ ELISPOT assay. Two group of 3 and 5 mice were immunized respectively with poly(I:C) alone (as control; bar on the left) and with MAGE-A9 full-length recombinant protein admixed with poly(I:C) (bar on the right). Mice were sacrificed 34 days after 1st immunization and spleen cells were tested in IFN-γ ELISPOT after stimulation with dendritic cells loaded with the individual candidate or control peptides (FIG. 19A) or after direct stimulation with the individual candidate or control peptides (FIG. 19B). DCE: Dendritic cell empty; NS: Non stimulated; B7-Ctrl; irrelevant control HLA-B7 peptide. Student T-test *p<0.05; ** p<0.005; *** p<0.0005; **** p<0.00005. […]
# as §1
sequence,measurement,setting,value
EVDPAGHSY [peptide 167],IFN-γ response (ELISPOT),"[1]; HLA-A1 mice, two experiments",very strong; also recorded: highly immunogenic
"ALLIIVLGV [compound 199, MAGE-A9 peptide antigen]",IFN-γ response (ELISPOT),[2],highest
"FLLHKYRVK [peptide 118, MAGE-A9 peptide antigen]",IFN-γ response (ELISPOT),[3]; only with peptide-loaded DC,good reactivity
NYKRYFPVI [peptide 141],IFN-γ response (ELISPOT),[4],interesting; also recorded: highest responder; also recorded: good immune responses; also recorded: stronger and more consistent results
"SVMGVYVGK [peptide 225, MAGE-A9 peptide antigen]",IFN-γ response (ELISPOT),"[3]; HLA-A11 mice, peptide-loaded DC or peptides alone",very strong; also recorded: very immunogenic
VYYTLWSQF [compound 71],IFN-γ response (ELISPOT),[4],interesting
SYILVTALG [compound 174],IFN-γ response (ELISPOT),[4],interesting; also recorded: good immune responses
"FMFQEALKL [peptide 102, MAGE-A9 peptide antigen]",IFN-γ response (ELISPOT),[2],highest; also recorded: consistently observed
same,"IFN-γ response (ELISPOT), significance",[2]; splenocytes stimulated with peptide-loaded DCs,statistically significant in two out of three experiments
"FLWGSKAHA [MAGE-A9 270, MAGE-A9 peptide antigen]",binding to MHC class 1 allele A*02:01 (in words),[5],high binding
same,CTL response (51Cr-release),[6],elicited a response
"STFKNWPFL [SurA24, survivin peptide antigen HLA-A24]",binding to MHC class 1 allele A*02:01 (in words),[5],high binding
same,Kinetic score,[5]; MHC class 1 allele A*02:01,0.00
same,On-rate T1/2,[5]; MHC class 1 allele A*02:01,31.52 h
same,R-score,[5]; MHC class 1 allele A*02:01,0.00
same,Off-rate T1/2,"[5]; MHC class 1 allele A*02:01, * = no significant, stable complex at end of measurement period",7.2 min
same,REVEAL score,"[5]; MHC class 1 allele A*02:01, Positive Control 100",61.93
"GLMGAQEPT [MAGE-A9 24, MAGE-A9 peptide antigen]",CTL response (51Cr-release),[6],elicited a response
"LMLGEFLKL [SurA2.M, survivin peptide antigen HLA-A2]",binding to MHC class 1 allele A*02:01 (in words),[5],high binding
same,HLA-A2 binding,HLA-A2,high affinity binding
"IVLGVILTK [peptide 203, MAGE-A9 peptide antigen]",IFN-γ response (ELISPOT),[3]; restimulated with peptide alone,weak but significant reactivity
MPKAALLII [peptide 195],IFN-γ response (ELISPOT),[7],greatest activity; also recorded: gave an immune response
KVAELVHFL [MAGE-A9 111],binding affinity compared to M9-A2-270,[5],lower binding affinity
same,binding to MHC class 1 allele A*02:01 (in words),[5],high binding
same,HLA-A2 binding,HLA-A2,high affinity binding
same,IFN-γ response (ELISPOT),[2],consistently higher
same,IFN-γ response (ELISPOT),"[1]; first experiment, peptide-loaded DC (FIG. 14A), not observed in the 2nd experiment",moderate response
same,specific lysis compared to M9-A2-270,[6],higher specific lysis
same,CTL response (51Cr-release),[6],elicited a response
